Source: patent US20110229892A1, “METHOD FOR PREDICTING A PATIENT'S RESPONSIVENESS TO ANTI-FOLATE THERAPY” (priority 2008, published 2011)
Where two headings read alike, the source gives them in different places.

What was measured:
CEM-MTX^R10 cells = assay: Antifolate growth inhibition assay (XTT), MTX-resistant subline; format: cell-based; conditions: Homo sapiens, 72 h, read-out: IC50 growth inhibition
Protocol: (§1) Tissue Culture: The human T-cell lymphocytic leukemia lines CCRF-CEM and Molt-4 as well as their antifolate-resistant sublines CEM-MTX^R5P, CEM-MTX^R10, CEM-7OH MTX and Molt-4-7OH MTX were maintained in RPMI-1640 medium (GIBCO) containing 2.3 μM folic acid supplemented with 10% fetal bovine serum, 2 mM glutamine, 100 units/ml penicillin G and 100 μg/ml streptomycin sulfate (Biological Industries, Beth-Haemek, Israel). The MTX-resistant sublines MTX^R5P and MTX^R10 were established by exposure of parental CCRF-CEM cells to 6 cycles each of 24 hr pulse of 5 or 10 μM MTX, respectively (Sigma) as follows: after an initial 24 hr pulse exposure of parental CCRF-CEM cells to 5 or 10 μM MTX at 37° C., cells were washed once with drug-free growth medium, adjusted to 3×10^5 cells/ml and allowed to grow for 1-2 weeks. Thereafter, a maintenance treatment of 24 hr pulses of MTX was performed once a month. CEM-7OH MTX and Molt-4-7OH MTX were established and maintained as previously described [Fotoohi K, et al., Blood. 2004; 104:4194-4201].
(§2) Antifolate growth inhibition assay: Parental cells and their antifolate-resistant sublines as well as FPGS-transfected cells were first grown in antifolate-free growth medium for 5-7 cell doublings. Thereafter, cells were seeded in 96-well plates (3×10^4/well) in growth medium (100 μl/well) containing various concentrations of the different antifolates (e.g. MTX, ZD1694 and ZD9331). After 3 days of incubation at 37° C., viable cell numbers were determined using the Cell Proliferation Kit (XTT) (Biological Industries). Percent inhibition of cell growth was calculated relative to untreated controls. Results presented are means of at least three independent experiments.

CEM-MTX^R5P cells = assay: as above; format: cell-based, human; conditions: for IC50: Homo sapiens, 72 h, read-out: IC50 growth inhibition
Protocol: as §1, §2

CCRF-CEM WT cells = assay: Antifolate growth inhibition assay (XTT), parental cells; format: cell-based; conditions: Homo sapiens, 72 h, read-out: IC50 growth inhibition
Protocol: as §1, §2

[1] = tested on: MTX^R10 cells overexpressing normal FPGS (pcDNA3/hFPGS transfectant); assay: Antifolate cytotoxicity in FPGS-transfected cells; format: cell-based, human; conditions: MTX^R10 cells transfected with normal FPGS, compared with parental cells
Protocol: as §2
Expression Vectors: pcDNA3/hFPGS harboring the full-length human FPGS cDNA was provided. […]
Stable Transfections with hFPGS Expression Constructs: Exponentially growing cells (i.e. CCRF-CEM and)CEM-MTX^R10) were harvested by centrifugation and stably transfected by electroporation (1000 μF, 234V) with 10 μg of the vectors pcDNA3.1, pIRES2-EGFP, pcDNA3/hFPGS or pIRES/FPGSΔexon10. […] Stable transfectants obtained after 4 weeks of G-418 selection were analyzed for FPGS mRNA levels by Northern blots as detailed below and used for further analyses.

RFC (SLC19A1) = target: T1, RFC (SLC19A1) (Homo sapiens, UniProt P41440); assay: [^3H]MTX transport assay; format: cell-based; conditions: 2 μM [3H]MTX, 3 min, 37° C.
T1 construct: endogenous in cells; host or cells: CCRF-CEM parental cells and antifolate-resistant sublines (MTX^R5P, CEM/MTX^R10)
T1 sequence (P41440 1-591): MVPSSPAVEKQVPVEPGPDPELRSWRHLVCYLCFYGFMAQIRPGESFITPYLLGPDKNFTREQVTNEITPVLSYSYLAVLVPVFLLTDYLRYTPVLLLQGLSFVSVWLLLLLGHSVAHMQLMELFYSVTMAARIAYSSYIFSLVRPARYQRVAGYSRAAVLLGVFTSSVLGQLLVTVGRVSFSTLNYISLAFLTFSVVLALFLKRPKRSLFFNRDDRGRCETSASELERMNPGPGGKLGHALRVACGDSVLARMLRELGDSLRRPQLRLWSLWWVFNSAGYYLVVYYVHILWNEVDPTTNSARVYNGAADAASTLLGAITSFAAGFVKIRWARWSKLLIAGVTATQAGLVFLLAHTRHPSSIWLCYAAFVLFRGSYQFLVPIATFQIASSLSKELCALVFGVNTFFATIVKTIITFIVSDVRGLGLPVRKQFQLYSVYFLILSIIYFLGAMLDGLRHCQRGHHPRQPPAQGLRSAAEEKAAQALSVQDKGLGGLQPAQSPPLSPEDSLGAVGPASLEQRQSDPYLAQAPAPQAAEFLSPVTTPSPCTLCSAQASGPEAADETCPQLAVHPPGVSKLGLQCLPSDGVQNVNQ
Protocol: [^3H]MTX transport assay: [^3H]MTX influx rates were determined as previously described [Jansen Get al., J Biol Chem. 1990; 265:18272-18277]. Briefly, cells (2×10^7) were washed with ice-cold HBS (20 mM HEPES, 140 mM NaCl, 5 mM KCl, 2 mM MgCl2, and 5 mM glucose, at pH 7.4) and incubated at 37° C. for 3 min in HBS containing 2 μM [3′,5′,7-^3H]-Methotrexate (0.555 TBq/mmol; […]; Moravek Biochemicals, Brea, Calif.). Transport controls contained a 500-fold excess (1 mM) of unlabeled MTX. Transport was stopped by the addition of 10 ml of ice-cold HBS. Then, the cell suspension was centrifuged, washed with ice-cold HBS and suspended in water for scintillation counting.

[2] = MTX^R5P cells vs parental cells
[3] = CEM-MTX^R10, 3 days incubation, XTT
[4] = CEM-MTX^R5P, 3 days incubation, XTT
[5] = CCRF-CEM WT, 3 days incubation, XTT

C#CCN(Cc1cc2c(=O)[nH]c(C)nc2cc1C)c1ccc(C(=O)N[C@@H](CCc2nnn[nH]2)C(=O)O)c(F)c1 [ZD9331, plevitrexed]
IC50 (CEM-MTX^R10 cells): 0.0408 ± 0.0041 µM
IC50 (CEM-MTX^R5P cells): 0.0139 ± 0.0017 µM
increased sensitivity relative to parental cells (CEM-MTX^R5P cells; [2]): 2 fold
IC50 (CCRF-CEM WT cells; CCRF-CEM): 0.0286 ± 0.0023 µM

Cc1nc2ccc(CN(C)c3ccc(C(=O)N[C@@H](CCC(=O)O)C(=O)O)s3)cc2c(=O)[nH]1 [ZD1964, raltitrexed]
IC50 (CEM-MTX^R10 cells; [3]): 0.11 ± 0.0098 µM
sensitivity after ectopic overexpression of normal FPGS [1]: fully restored parental cell sensitivity
IC50 (CEM-MTX^R5P cells; [4]): > 300 µM
resistance relative to parental CCRF-CEM cells (CEM-MTX^R5P cells; [2]): 50,000 fold
IC50 (CCRF-CEM WT cells; [5]): 0.00606 ± 0.00042 µM

CN(Cc1cnc2nc(N)nc(N)c2n1)c1ccc(C(=O)N[C@@H](CCC(=O)O)C(=O)O)cc1 [MTX, methotrexate]
MTX Influx (RFC (SLC19A1); CCRF-CEM WT (parental reference)): 100%
MTX Influx (RFC (SLC19A1); CEM-MTX^R5P, relative to parental cells): 50 ± 5%
MTX Influx (RFC (SLC19A1); CEM-MTX^R5P, relative to parental cells, listed as [^3H]MTX): 50%
MTX Influx (RFC (SLC19A1); CEM-MTX^R10, relative to parental cells): 91 + 6%
IC50 (CEM-MTX^R10 cells; [3]): 0.0282 ± 0.0029 µM
IC50 (CEM-MTX^R5P cells; [4]): 0.0231 ± 0.002 µM
IC50 (CCRF-CEM WT cells; [5]): 0.0257 ± 0.0021 µM
